Experimental data published in patent publication US10179194B2, “Self-assembling peptides, peptidomimetics and peptidic conjugates as building blocks for biofabrication and printing” (Agency for Science, Technology and Research, priority 2013, dated 2019).
Peptide text beside a SMILES is read from it.

Experiments:
[1] = test system: Chinese hamster ovary cells
[2] = test system: New Zealand White rabbits; experiment: Induced disc degeneration rabbit model (injectable therapy); type: in vivo
Method: FIG. 14 Evaluation of an injectable therapy in a rabbit model of degenerative disc disease. • (A) In this animal model, three lumbar intervertebral discs between the L3 and L6 vertebrae were punctured and their nucleus pulposus (NP) content aspirated. One month post-injury, two different treatments were injected into the NP space. The first treatment consists of 20 mg/mL of Ac-LIVAGK-NH2 (SEQ ID NO: 20) in PBS and gadolinium-DTPA (Gd-DTPA), a T1 MRI contrast agent. The second therapy consists of labeled donor rabbit NP cells encapsulated in 20 mg/mL of Ac-LIVAGK-NH2 (SEQ ID NO: 20) in PBS. The cells were labeled with FITC-conjugated iron oxide nanoparticles, which are T2 MRI contrastophores. […] In comparison, damaged untreated discs (D) are darker. […] The healthy disc was obtained from animal R245 (disc L2/L3), while the damaged disc was from R334 (L4/L5). The hydrogel treated disc imaged is L3/L4 from R245 and the cell therapy disc is L5/L6 of R328. At higher magnification, faintly fluorescent cells could be observed for discs that received cell therapy.
Induced disc degeneration rabbit model. […]
We designed an injectable therapy wherein our stimuli-responsive peptide Ac-LIVAGK-NH2 (SEQ ID NO: 20) was administered as a low viscosity solution which subsequently gels in situ. This therapy was evaluated in the induced disc degeneration rabbit model. […]

[3] = Rheology of hydrogels, storage modulus G'; type: physicochemical
Method: Hydrogel samples were prepared in polydimethysiloxane moulds to obtain approximately 1 mm thick, 8 mm diameter discs. Dynamic strain and oscillatory frequency sweep experiments were carried out using the ARES-G2 Rheometer (TA Instruments, Piscataway, N.J.) with 8 mm titanium parallel plate geometry. The effects of varying several parameters on viscoelastic properties were studied as follows: • (1) Effect of varying concentration • (2) Effect of varying ionic strength of the solution (water vs saline vs PBS) • (3) Effect of varying pH Extrusion from 27 Gauge Needle
Rheology. Hydrogel samples were prepared in polydimethysiloxane moulds to obtain approximately 1 mm thick, 8 mm diameter discs. Dynamic strain and oscillatory frequency sweep experiments were carried out using the ARES-G2 Rheometer (TA Instruments, Piscataway, N.J.) with 8 mm titanium parallel plate geometry.

[4] = Stimuli-responsive gelation (minimum gelation concentration); type: physicochemical
Method: Ac-LIVAGK-NH2 (SEQ ID NO: 20) forms hydrogels at 20 mg/mL in water, 12 mg/mL in saline, 7.5 mg/mL in PBS, and 10 mg/mL in 10 mM NaOH.(B) The rigidity, as represented by the storage modulus (G′), of 20 mg/mL Ac-LIVAGK-NH2 hydrogels increases by one order of magnitude to 10 kPa when dissolved in normal saline(NaCl) as compared to water at 1 kPa. In phosphate buffered saline (PBS), G′ increases to 40 kPa. The stiffness also increases with peptide concentration. (C) The addition of sodium hydroxide (NaOH) enhances the rigidity of 20 mg/mL Ac-LIVAGK-NH2 (SEQ ID NO: 20) hydrogel from 1 kPa in water to 80 kPa. The rigidity increases with NaOH concentration. (D) Hydrogel droplet arrays of various dimensions can be obtained by mixing equivolumes of peptide solution (such as 10 mg/mL Ac-ILVAGK-NH2)(SEQ ID NO: 20) and PBS containing small molecules. Bioactive moieties can also be encapsulated; 1 μL droplets with green food colouring and 488 nm emission quantum dots, 2 μL droplets with red food colouring and 568 nm emission fluorophore conjugated to a secondary antibody, and 5 μL droplets with methylene blue and DAPI. (E) Hydrogel “noodles” are obtained by extruding 5 mg/mL Ac-ILVAGK-NH2 (SEQ ID NO: 20) solution through a 27 gauge needle into a concentrated salt bath.
• Peptide sequence: Ac-LIVAGD-COOH (SEQ ID NO: 17) • Molecular weight: 629.56 • (1) Temperature Sweep Study for Ac-LD6 (L) (SEQ ID NO : 17): • (a) The peptide mixture was then placed on rheometer lower plate. […]

[5] = test system: guinea pigs; details: guinea pig, in vivo
[6] = Self-assembly into aggregates and fibres in aqueous solution; type: physicochemical
Method: It is in some embodiments stable in aqueous solution at physiological conditions at ambient temperature for a period of time in the range from 1 day to 1 month or more. It may in some embodiments be stable in aqueous solution at physiological conditions at 90° C. for at least 1 hour, at least 2 hours, at least 3 hours, at least 4 hours or at least 5 hours An amphiphilic linear sequence of an amphiphilic peptide and/or peptoid including an amphiphilic linear peptide and/or peptoid, is capable of providing a self assembling α-helical fiber in aqueous solution under physiological conditions. The peptides/peptoids (typically 3-7-mers) in the L- or D-form can self assemble into supramolecular helical fibers which are organized into mesh-like structures mimicking biological substances such as collagen. It has previously been observed in X-ray crystallography that peptides of a length of 3 to 6 amino acids with repetitive alanine containing sequences and an acetylated […] take a helical conformation (Hatakeyama, Y, et al, Angew. Chem. Int. Ed. (2009) 8695-8698). Using peptides with an amphiphilic sequence, Ac-LD6 (L), the formation of aggregates has for example been observed already at 0.1 mg/ml. […]

With `CC[C@H](C)[C@H](NC(=O)[C@H](CC(C)C)NC(C)=O)C(=O)N[C@H](C(=O)N[C@@H](C)C(=O)NCC(=O)N[C@@H](CCCCN)C(N)=O)C(C)C` [Ac-LIVAGK-NH2] (Ac-LIVAGK-NH2) the “Breaks SB (chromosome break)” value [1] was 2, the “Breaks TB (chromatid break)” value [1] was 3 and the “Cells with aberrations (excluding gaps)” value [1] was 5. The “D (deletion)” value [1] was 0, the “Gaps SG (chromosome gap)” value [1] was 2 and the “Inter Chromosomal Rearrangements CR (complex)” value [1] was 0. The “Inter Chromosomal Rearrangements DC (dicentric chromosome)” value [1] was 0, the “Inter Chromosomal Rearrangements QR (quadradial)” value [1] was 0 and the “Inter Chromosomal Rearrangements R (ring)” value [1] was 0. The “Inter Chromosomal Rearrangements TR (triradial)” value [1] was 0, the “Other aberrations DM (double minute)” value [1] was 0 and the “Other aberrations PV (pulverized)” value [1] was 0. The “mutagenicity (genotoxicity assays)” value [1] was “non-mutagenic”, the “immune response and tissue integration in histology sections of discs” value ([2]; 20 mg/mL in PBS with Gd-DTPA, or with labeled donor rabbit NP cells, two month post-treatment) was “integrated with the tissue and did not elicit an immune response” and the “time to gelation in situ” value ([2]; approximately 100 μL of 20 mg/mL peptide in PBS injected into a damaged NP) was ≤ 5 min. For the same compound, the “storage modulus (G′)” value ([3]; 20 mg/mL hydrogel in normal saline (NaCl)) was 10 kPa, the “storage modulus (G′)” value ([3]; 20 mg/mL hydrogel in phosphate buffered saline (PBS)) was 40 kPa and the “storage modulus (G′)” value ([3]; 20 mg/mL hydrogel in water) was 1 kPa. The “storage modulus (G′)” value ([3]; 20 mg/mL hydrogel with addition of sodium hydroxide (NaOH)) was 80 kPa, the “concentration at which hydrogels form” value ([4]; in 10 mM NaOH) was 10 mg/mL and the “concentration at which hydrogels form” value ([4]; in PBS) was 7.5 mg/mL. For the same compound, the “concentration at which hydrogels form” value ([4]; in saline) was 12 mg/mL, the “concentration at which hydrogels form” value ([4]; in water) was 20 mg/mL and the “irritation or allergic reactions” value [5] was “no irritation or allergic reactions”. For the same compound, the “reactions following subsequent immune challenge” value [5] was “no reactions were observed” and the “systemic signs of toxicity” value [5] was “did not exhibit any systemic signs of toxicity”.

For Ac-LIVAGD-OH [Ac-LD6 (L)], the “concentration at which formation of aggregates is observed” value [6] was 0.1 mg/mL and the “concentration at which peptide monomers align to form fibrous structures” value [6] was 1 mg/mL.
